Data as given in PMC8922279, “Identification of β-Lactams Active against Mycobacterium tuberculosis by a Consortium of Pharmaceutical Companies and Academic Institutions” (ACS Infectious Diseases, 2022).

What was measured:
[1] = test system: Mtb H37Rv; experiment: MIC90 against replicating (R) Mtb H37Rv, with or without clavulanate; format: cell-based, Mycobacterium tuberculosis; conditions: Table S4; for Mtb H37Rv R + CLAV (MIC90): clavulanate 4 μg/mL; for Mtb H37Rv R (MIC90): no clavulanate
[2] = test system: Mtb H37Rv; experiment: MIC90 against nonreplicating (NR, 4-stress) Mtb H37Rv, with or without clavulanate; format: cell-based, Mycobacterium tuberculosis; conditions: 4-stress nonreplicating, Table S4; for Mtb H37Rv NR + CLAV (MIC90): clavulanate 4 μg/mL; for Mtb H37Rv NR (MIC90): no clavulanate
[3] = test system: E. coli; experiment: Microbial spectrum, E. coli; format: cell-based, Escherichia coli; conditions: clavulanate 4 μg/mL; Table S4
[4] = test system: P. aeruginosa; experiment: Microbial spectrum, P. aeruginosa; format: cell-based, Pseudomonas aeruginosa; conditions: clavulanate 4 μg/mL; Table S4
[5] = test system: S. aureus; experiment: Microbial spectrum, S. aureus; format: cell-based, Staphylococcus aureus; conditions: clavulanate 4 μg/mL; Table S4
[6] = test system: C. albicans; experiment: Microbial spectrum, C. albicans; format: cell-based, Candida albicans; conditions: no clavulanate; Table S4
[7] = In vitro plasma stability, human plasma; conditions: 37 °C, time point 120 min; for Plasma stability % Remaining, Human: 2 μM
[8] = In vitro plasma stability, SD rat plasma; conditions: 37 °C, time point 120 min; for Plasma stability % Remaining, Rat: 2 μM
[9] = Stability in simulated gastric fluid (SGF); conditions: for SGF Stability, % remaining, 1h / SGF Stability, % remaining, 24h: 10 μM, pH 1.2, room temperature
[10] = In vitro plasma stability, CD-1 mouse plasma; conditions: 37 °C, time point 120 min; for Plasma stability % Remaining, Mouse: 2 μM
[11] = In vitro plasma stability, beagle dog plasma; conditions: for Plasma stability % Remaining, Dog: 2 μM, 37 °C, time point 120 min
[12] = test system: Caco-2 cells; experiment: Caco-2 permeability / efflux transporter substrate; conditions: for Caco-2 Mean Papp A to B / Caco-2 Mean Papp B to A: 3 μM, pH 7.4, 120 min; for Caco-2 Mean Recovery % A to B / Caco-2 Mean Recovery % B to A / Caco-2 Rank Papp / Caco-2 Efflux Ratio / Efflux Transporter Substrate: Caco-2
[13] = In vitro plasma stability, cynomolgus monkey plasma; conditions: for Plasma stability % Remaining, Monkey: 2 μM, 37 °C, time point 120 min
[14] = test system: plasma proteins; experiment: Plasma protein binding (equilibrium dialysis), human; conditions: 2 μM
[15] = test system: plasma proteins; experiment: Plasma protein binding (equilibrium dialysis), SD rat; conditions: 2 μM
[16] = Stability in fasted simulated intestinal fluid (FaSSIF); conditions: pH 6.5, room temperature; for FaSSIF Stability, % remaining, 6h / FaSSIF Stability, % remaining, 24h: 10 μM
[17] = test system: plasma proteins; experiment: Plasma protein binding (equilibrium dialysis), beagle dog; conditions: 2 μM
[18] = test system: plasma proteins; experiment: Plasma protein binding (equilibrium dialysis), CD-1 mouse; conditions: 2 μM
[19] = test system: plasma proteins; experiment: Plasma protein binding (equilibrium dialysis), cynomolgus monkey; conditions: 2 μM
[20] = Caco-2 permeability / efflux transporter substrate; conditions: human
[21] = simulated gastric fluid (SGF), pH 1.2

SMILES | Mtb H37Rv R + CLAV (MIC90) [1] [µM] | Mtb H37Rv R (MIC90) [1] [µM] | Mtb H37Rv NR + CLAV (MIC90) [2] [µM] | Mtb H37Rv NR (MIC90) [2] [µM] | E.coli R + CLAV (MIC90) [3] [µM] | P.aeruginosa R + CLAV (MIC90) [4] [µM] | S.aureus R + CLAV (MIC90) [5] [µM] | C.albicans R (MIC90) [6] [µM] | SGF Stability, % remaining, 1h [9] [%] | SGF Stability, % remaining, 24h [9] [%] | Caco-2 Mean Papp A to B [12] | Caco-2 Mean Papp B to A [12] | Caco-2 Mean Recovery % A to B [12] [%] | Caco-2 Mean Recovery % B to A [12] [%] | Caco-2 Rank Papp [12] | % bound to plasma, Human [14] [%] | % bound to plasma, SD Rat [15] [%] | % bound to plasma, Beagle Dog [17] [%] | % bound to plasma, CD-1 Mouse [18] [%] | % bound to plasma, Cynomolgus Monkey [19] [%] | further results
CNCc1ccccc1CC(=O)N[C@@H]1C(=O)N2C(C(=O)O)=C(CSc3nnnn3C)CS[C@H]12 [TBBL-0000468] | 5.4 | 16.4 | > 100 | > 100 | > 100 | > 100 | 8.7 | > 100 | 101.42 | 49.27 | < 0.25 10-6 cm/s | < 0.21 10-6 cm/s | < 102.74 | < 109.10 | Low | 21.1 | 39.1 | 7.3 | 1.7 | 21.9 | Plasma stability % Remaining, Human [7]: 73.6%; Plasma stability % Remaining, Rat [8]: 80.8%; Plasma stability % Remaining, Mouse [10]: 72.0%; Plasma stability % Remaining, Dog [11]: 77.2%; Plasma stability % Remaining, Monkey [13]: 101.7%; FaSSIF Stability, % remaining, 6h [16]: 83.23%; FaSSIF Stability, % remaining, 24h [16]: 56.36%
NCc1ccccc1CC(=O)N[C@@H]1C(=O)N2C(C(=O)O)=C(CSc3nnnn3CCO)CS[C@H]12 [TBBL-0000656] | 2.1 | 5.8 | > 100 | > 100 | 9.8 | > 100 | > 100 | > 100 | 87.12 | 53.93 | < 0.12 10-6 cm/s | 0.27 10-6 cm/s | < 102.47 | 106.09 | Low | 23.3 | 50.2 | 11.2 | 23.0 | 22.0 | Plasma stability % Remaining, Human [7]: 75.1%; Plasma stability % Remaining, Rat [8]: 85.1%; Plasma stability % Remaining, Mouse [10]: 95.0%; Plasma stability % Remaining, Dog [11]: 74.7%; Caco-2 Efflux Ratio [12]: > 2.26; Efflux Transporter Substrate [12]: Likely; Plasma stability % Remaining, Monkey [13]: 85.7%; FaSSIF Stability, % remaining, 6h [16]: 89.32%; FaSSIF Stability, % remaining, 24h [16]: 70.9%
Cn1nnnc1SCC1=C(C(=O)O)N2C(=O)[C@@H](NC(=O)Cc3ccc(C4=NCCCN4)cc3)[C@H]2SC1 [TBBL-0000309] | 0.7 | 29.6 | > 100 | > 100 | 20.6 | > 100 | 1.8 | > 100 | 103.51 | 60.13 | 0.18 10-6 cm/s | 0.38 10-6 cm/s | 99.65 | 104.93 | Low | 24.6 | 38.2 | 0.0 | 4.1 | 29.4 | Plasma stability % Remaining, Human [7]: 79.0%; Plasma stability % Remaining, Rat [8]: 79.8%; Plasma stability % Remaining, Mouse [10]: 68.8%; Plasma stability % Remaining, Dog [11]: 77.8%; Caco-2 Efflux Ratio [12]: 2.12; Efflux Transporter Substrate [12]: Likely; Plasma stability % Remaining, Monkey [13]: 104.7%; FaSSIF Stability, % remaining, 6h [16]: 95.78%; FaSSIF Stability, % remaining, 24h [16]: 77.15%
C[C@@H](O)[C@H]1C(=O)N2C(C(=O)O)=C(S[C@@H]3CN[C@H](C(=O)Nc4cccc(C(=O)O)c4)C3)[C@H](C)[C@H]12 [Ertapenem, reference compound] | – | – | – | – | – | – | – | – | – | – | – | – | – | – | Low | – | – | – | – | – | remaining at 2 h, 2 μM ([7]; human, plasma, Plasma stability % Remaining): 77.5%; remaining at 2 h, 2 μM ([8]; SD, rat, plasma, Plasma stability % Remaining): 69.1%; remaining at 1 h, 10 μM [9, 21]: 0%; remaining at 24 h, 10 μM [9, 21]: 0%; remaining at 2 h, 2 μM ([10]; male, CD-1, mouse, plasma, Plasma stability % Remaining, Mouse): 74.2%; remaining at 2 h, 2 μM ([11]; beagle, dog, plasma): 70.7%; Papp A→B at 120 min, 3 μM ([20]; Caco-2, pH 7.4): < 0.23 ×10⁻⁶ cm/s; Papp B→A at 120 min, 3 μM ([20]; Caco-2, pH 7.4): < 0.21 ×10⁻⁶ cm/s; recovery at 120 min, 3 μM ([20]; Caco-2, pH 7.4, Caco-2 Mean Recovery % A to B): < 116%; recovery at 120 min, 3 μM ([20]; Caco-2, pH 7.4, Caco-2 Mean Recovery % B to A): < 112%; remaining at 2 h, 2 μM ([13]; monkey, plasma): 115%; remaining at 6 h, 10 μM ([16]; fasted simulated intestinal fluid (FaSSIF), pH 6.5, FaSSIF Stability, % remaining, 6h): 86.8%; remaining at 24 h, 10 μM ([16]; fasted simulated intestinal fluid (FaSSIF), pH 6.5, FaSSIF Stability, % remaining, 24h): 85.8%
CC(=O)OCC1=C(C(=O)O)N2C(=O)[C@@H](NC(=O)CSc3ccncc3)[C@H]2SC1 [TBBL-0000063] | 1.9 | 13.1 | > 100 | > 100 | > 100 | > 100 | 0.8 | > 100 | 87.31 | 27.14 | < 0.41 10-6 cm/s | < 0.37 10-6 cm/s | < 87.73 | < 102.87 | Low | 38.7 | 42.4 | 27.8 | 14.7 | 0.0 | FaSSIF Stability, % remaining, 6h [16]: 102.47%; FaSSIF Stability, % remaining, 24h [16]: 62%
CCCc1nnc(SCC2=C(C(=O)O)N3C(=O)[C@@H](NC(=O)Cc4ccc(C(=N)N)cc4)[C@H]3SC2)s1 [TBBL-0000314] | 0.8 | 14.1 | > 100 | > 100 | > 100 | > 100 | 1.6 | > 100 | 76.41 | 1.85 | < 0.07 10-6 cm/s | < 0.06 10-6 cm/s | < 94.56 | < 107.68 | Low | 65.7 | 84.6 | 46.7 | 67.9 | 60.1 | Plasma stability % Remaining, Human [7]: 77.2%; Plasma stability % Remaining, Rat [8]: 73.3%; Plasma stability % Remaining, Mouse [10]: 76.2%; Plasma stability % Remaining, Dog [11]: 77.0%; Plasma stability % Remaining, Monkey [13]: 103.9%; FaSSIF Stability, % remaining, 6h [16]: 101.85%; FaSSIF Stability, % remaining, 24h [16]: 95.17%
CON=C(C(=O)N[C@@H]1C(=O)N2C(C(=O)O)=C(CSc3cccc[n+]3[O-])CS[C@H]12)c1csc(N)n1 [TBBL-0000539] | 1.9 | 2 | 4.6 | 4.7 | 13.1 | > 100 | 17.3 | > 100 | 104.45 | 90.77 | < 0.10 10-6 cm/s | 0.31 10-6 cm/s | < 96.40 | 105.53 | Low | 56.9 | 61.3 | 5.2 | 20.9 | 84.3 | Plasma stability % Remaining, Human [7]: 83.4%; Plasma stability % Remaining, Rat [8]: 98.2%; Plasma stability % Remaining, Mouse [10]: 92.4%; Plasma stability % Remaining, Dog [11]: 79.7%; Caco-2 Efflux Ratio [12]: > 3.03; Efflux Transporter Substrate [12]: Likely; Plasma stability % Remaining, Monkey [13]: 120.8%
